What was measured:
[1] = Further pharmacokinetics study, apricot oil formulations: concentration in perilymph (Example 3); assay type: in vivo, male Long Evans rats
Protocol: Apricot oil is present in the formulation as a solubilizing agent. α-(-)-bisabolol is used as diffusing agent. […] 2. […] 3. […] 4. […] Both ears were treated. […] 5. […]

[2] = Pharmacokinetics after single ear canal administration: concentration in perilymph (Examples 1 and 2)
Protocol: Pharmacokinetics study of different active agents has been conducted with ready-to-use formulations. The pharmacokinetic study consists of a single administration up to the eardrum on male Long Evans rats and assessment of the level of the active agent in middle ear area (tympanic bulla) and in the inner ear area (perilymph).
2. Route of administration: 20 μl of each formulation are delivered in the ear canal of one animal in one administration.
3. Animals: 6 male rats Long Evans, were obtained from Janvier Labs, Le Genest St Isle, 53941 St Berthevin, France. Acclimation Animals arrived on site at least 5 days before the experiment to allow optimal acclimation. Selection Animal health was examined on the day before starting the study, to ensure that only animals in good health were selected to enter the testing procedures. Identification: At the beginning of the study, animals were identified with a number on the tail. Each cage was labelled with a record card, indicating the test compound, the dose of administration and the identification of the animals Housing: Rats were housed in cages (1354G (Tecniplast, Lyon), dim 595*380 mm (w*d)), in a room where the air was continuously filtered, thereby avoiding any contamination. During experiments, rats were caged in groups of five (300-400 g) at a constant temperature with a day/night cycle of 12/12 hours. Animals received water (autoclaved water) and nutrition (ref A04C10), ad libitum.
4. Treatment and study design: The treatment was delivered into the ear canal and on the tympanic membrane on anesthetized rats (2.5% isoflurane). The exact volume of administration was determined during this first test and delivered (volume of 20 μL). Both ears were treated. After administration, the animal was kept on a heating pad for 5 minutes, positioned on its side to allow the compound to diffuse through the tympanic membrane. Then the second ear were administered, and the animal kept on its side for 5 minutes. Finally, the animal was kept on a ventral position until its recovery from anesthesia. The diffusion trough the tympanic membrane and into the inner ear and was assessed with the dosage of the perilymph sampling. Tympanic bulla sampling technique: After sacrifice of the rats, the right tympanic bulla was collected from each animal and transferred to an Eppendorf tube, weighed individually and frozen at −20° C. until analysis. Perilymph sampling technique: After sacrifice of the rats and extraction of the tympanic bulla from the left ear, a volume of about 1 μL of cochlear fluid at the base of the cochlea was sampled ex vivo. Tubes were weighed individually before and after sampling, and immediately transferred to a −20° C. freezer.
5. Bioanalysis: The concentration of each compound in the perilymph and in the tympanic bulla was quantified using an exploratory LC/MS-MS assay method in outsourcing laboratory (Eurofins Vergeze, France). The concentration of amitriptyline in plasma was assessed.
The same materials and methods were used as in Example 1.

[3] = Pharmacokinetics after single ear canal administration: concentration in plasma; assay type: in vivo, male Long Evans rats; settings: from 1 to 8 hours after administration
Protocol: 2. […] 3. […] Animals received water (autoclaved water) and nutrition (ref […]), ad libitum. 4. […] Both ears were treated. […] Perilymph sampling technique: […] […] 5. […] The concentration of amitriptyline in plasma was assessed.

[4] = after 8 hours from the administration onto the tympanic membrane, Example 3 conclusion
[5] = after 8 hours from the administration onto the tympanic membrane, Example 1 conclusion

Row | Structure (SMILES) | Presence within the inner ear (perilymph) [2, 5] | Presence within the inner ear (perilymph) ([2]; rat, in vivo) | other results
1 | CCN(CC)CC(=O)Nc1c(C)cccc1C [lidocaine] | – | – | Presence within the inner ear (perilymph) [1, 4]: present
2 | CC1CCCCC1(c1cccs1)N1CCCCC1 (stereo not shown) [gacyclidine] | present | – | –
3 | C=C(C)[C@@H]1CCC(C)=C[C@H]1c1c(O)cc(CCCCC)cc1O [cannabidiol] | present | – | –
4 | CCCN(CCC)CCc1cccc2c1CC(=O)N2 [ropinirole] | – | present | –
5 | COc1ccc2c(c1)[C@]13CCCC[C@@H]1[C@H](C2)N(C)CC3 [dextromethorphan] | present | – | –
6 | CC(C)c1cc2[nH]c(=O)n(NS(C)(=O)=O)c(=O)c2cc1-c1ccnn1C [selurampanel] | present | – | –
7 | CN(C)CCC=C1c2ccccc2CCc2ccccc21 [amitriptyline] | – | present | Presence in plasma [3]: present in plasma
8 | CCCN[C@H]1CCc2nc(N)sc2C1 [pramipexole] | – | present | –
9 | C[C@@H]1C[C@H]2[C@@H]3CCC4=CC(=O)C=C[C@]4(C)[C@@]3(F)[C@@H](O)C[C@]2(C)[C@@]1(O)C(=O)CO [dexamethasone] | – | present | Presence within the inner ear (perilymph) [1, 4]: present
10 | O=c1cc(-c2ccccc2)oc2c(O)c(O)ccc12 [7,8-dihydroxyflavone] | – | present | Presence within the inner ear (perilymph) ([1]; rat, in vivo): present

Reference: US20240016766A1, “PHARMACEUTICAL COMPOSITION FOR TREATMENT OF INNER EAR DISORDERS THROUGH LOCAL ADMINISTRATION IN THE TYMPANIC AREA” (priority 2020, published 2024)
